# Measured values as given in patent publication US10300155B2, “Alpha-synuclein ligands” (Washington University, priority 2015, dated 2019).
# “And” between values parts separate entries of the source, which are not always exact repeats. Equal entries are not always repeated. Where two headings read alike, the source gives them in different places.
# Key:
# α-synuclein fibrils [1] = target: T1, α-synuclein fibrils (Homo sapiens, UniProt P37840); assay: ThT competitive assay for α-synuclein fibrils (Table 1); format: binding; settings: for EC50: α-synuclein fibrils
# T1 construct: made in house; host or cells: E. coli BL21(DE3)RIL
# Method: Upon binding to amyloid fibrils, a peak at approximately 440 nm becomes dominant with the fluorescent emission maximum shifted to 480 nm. This is accompanied by a strong enhancement of the fluorescence.
# α-Synuclein recombinant protein was produced in E. coli. […] Freshly transformed BL21 colonies were inoculated into 2 L baffled flasks containing 250 mL sterilized TB (1.2% bactotryptone, 2.4% yeast extract, 0.4% glycerol, 0.17 M KH2PO4, 0.72 M K2HPO4) with 50 μg/ml ampicillin, and incubated overnight at 37° C. with shaking.
# To determine the concentration of fibrils, the reaction mixture (100 μL) was centrifuged at 18,000×g for 10 minutes to separate fibrils from monomer. The α-synuclein monomer and other soluble proteins in the supernatant were removed, and the fibril pellet was resuspended in 100 μL solution of Tris-HCl (20 mM) and NaCl (100 mM). This fibril suspension was used in a bicinchoninic acid (BCA) protein assay along with a bovine serum albumin (BSA) standard curve to determine the concentration of fibrils in the 72 hour fibril reaction mixture.
# To prepare the fibrils for performing binding assays, the fibril reaction mixture prepared above was centrifuged at 18,000×g for 10 minutes.
# Once the ThT-α-synuclein saturation binding curve and dissociation constant (Kd) were determined the competitive assay for determining the binding affinity of various test compounds was conducted. […] The mixture was incubated at room temperature for 60 minutes on the shaking plate. The fluorescent intensity for each cell was measured by the fluorescence reader at λex and λem. The Ki value for each compound was calculated by the corresponding inhibition curve.
# The Ki values were derived from the EC50 values using the Cheng-Prusoff equation: Ki=EC50/(1+[radioligand]/Kd). See FIGS. 17.1-31.2 for the inhibition curves for each compound in the ThioT competitive binding assay.
# α-synuclein fibrils [2] = target: T1, α-synuclein fibrils; assay: Thioflavin T competition assay (Example 130, Table 9), α-synuclein fibrils; format: binding
# Method: Freshly transformed BL21 colonies were inoculated into 2 L baffled flasks containing 250 ml sterilized TB (1.2% bactotryptone, 2.4% yeast extract, 0.4% glycerol, 0.17 M KH2PO4, 0.72 M K2HPO4) with 50 μg/ml ampicillin, and incubated overnight at 37° C. with shaking.
# Competition assays used a fixed concentration of α-syn, Aβ, or tau fibrils (1 μM), consisting of 3 μM, 50 nM and 4 μM of ThioflavinT respectively. […] To optimize the determination of selectivity, assays for all three fibril species were set up in parallel using a common set of intermediate compound dilutions for each analog. Reactions were incubated at room temperature for 1.5 h before quantifying bound ligand as described above for the saturation binding assay. […] All data points were performed in triplicate. Nonspecific fluorescence was measured in parallel reactions containing ThioT plus each concentration of competitor but no fibrils, and these measurements were subtracted from the reactions with fibrils to yield fibril-specific fluorescence. Data were analyzed using Graphpad. Prism software (version 4.0) to obtain EC50 values by fitting the data to the equation Y=bottom+(top-bottom)/(1+10^(x−log EC50)).
# tau fibrils = tau fibrils (Homo sapiens, UniProt P10636); assay: ThT competitive assay for tau fibrils (Table 3); format: binding; parameters: made in house; host or cells: E. coli; settings: for EC50: tau fibrils
# Method: Tau fibril recombinant protein was produced in E. coli. Additional preparation was performed in a similar fashion to Example 115.
# [3] = Biodistribution in male Balb/C mice; format: in vivo; settings: for Biodistribution: Blood / Biodistribution: Bone / Biodistribution: Brain / Biodistribution: Fat / Biodistribution: Heart / Biodistribution: Kidney / Biodistribution: Liver / Biodistribution: Lung / Biodistribution: Muscle / Biodistribution: Pancreas / Biodistribution: Spleen: tail vein, mean ± SD, n = 4
# Method: For the biodistribution studies, 100˜130 μCi of [^11C] TZ-20-35 in ˜100 μL of 10% ethanol/saline solution (v/v) was injected via the tail vein into mature male Balb/C mice (19-24 g) under anesthesia (2.5% isoflurane in oxygen at a flow rate of 1 mL/min). A group of at least four […] were used for each time point. […] The whole brain was quickly harvested. At the same time, samples of blood, heart, lung, liver, spleen, pancreas, kidney, muscle, fat, and tail were dissected. All the tissue samples were collected in tared tubes and counted in an automated gamma counter (Beckman Gamma 8000 well counter) with standards, prepared by diluting the injectate. The counted tissues were then weighed, and the % ID/g was calculated (Table 4).
# [4] = average, read-out: Ki (nM) α-syn (avg)
# [5] = individual determinations, read-out: Ki (nM) α-syn
# [6] = average, read-out: EC50 (nM) EC50 (avg)
# [7] = individual determinations, read-out: EC50 (nM) EC50
# [8] = average, read-out: α-synuclein EC50 (avg)
# [9] = average, read-out: α-synuclein Ki (avg)
# [10] = individual determinations, read-out: α-synuclein EC50
# [11] = individual determinations, read-out: α-synuclein Ki
# Chain of tau fibrils (P10636 560-692 limits assumed): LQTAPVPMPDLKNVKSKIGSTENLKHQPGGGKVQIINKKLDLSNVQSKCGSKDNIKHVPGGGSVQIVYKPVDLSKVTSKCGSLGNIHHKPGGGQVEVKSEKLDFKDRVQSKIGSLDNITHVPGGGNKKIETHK
structure (smiles),measurement,setting,value
COc1ccc2nc(/C=C/c3ccoc3)ccc2c1 [TZ-36-54],Ki,α-synuclein fibrils [1]; [4],68.5 nM
same,Ki,α-synuclein fibrils [1]; [5],65 nM and 72 nM
same,EC50,α-synuclein fibrils [1]; [6],178 nM
same,EC50,α-synuclein fibrils [1]; [7],169 nM and 188 nM
same,EC50,α-synuclein fibrils [2]; [8],178 nM
same,Ki,α-synuclein fibrils [2]; [9],68.5 nM
same,EC50,α-synuclein fibrils [2]; [10],169 nM and 188 nM
same,Ki,α-synuclein fibrils [2]; [11],65 nM and 72 nM
COc1cc(/C=C/c2ccc3cc(OC(C)C)ccc3n2)ccn1 [TZ-36-138],Ki,α-synuclein fibrils [1]; [4],49 nM
same,Ki,α-synuclein fibrils [1]; [5],49 nM
same,EC50,α-synuclein fibrils [1]; [6],128 nM
same,EC50,α-synuclein fibrils [1]; [7],128 nM
same,EC50,α-synuclein fibrils [2]; [8],128 nM
same,Ki,α-synuclein fibrils [2]; [9],49 nM
same,EC50,α-synuclein fibrils [2]; [10],128 nM
same,Ki,α-synuclein fibrils [2]; [11],49 nM
COc1ccc2nc(C#Cc3ccnc(OC)c3)ccc2c1 [TZ-36-142],Ki,α-synuclein fibrils [1]; [4],233 nM
same,Ki,α-synuclein fibrils [1]; [5],233 nM
same,EC50,α-synuclein fibrils [1]; [6],609 nM
same,EC50,α-synuclein fibrils [1]; [7],609 nM
same,EC50,α-synuclein fibrils [2]; [8],609 nM
same,Ki,α-synuclein fibrils [2]; [9],233 nM
same,EC50,α-synuclein fibrils [2]; [10],609 nM
same,Ki,α-synuclein fibrils [2]; [11],233 nM
COCOc1ccc2nc(/C=C/c3ccnc(OC)c3)ccc2c1 [TZ-36-144],Ki,α-synuclein fibrils [1]; [4],42 nM
same,Ki,α-synuclein fibrils [1]; [5],42 nM
same,EC50,α-synuclein fibrils [1]; [6],110 nM
same,EC50,α-synuclein fibrils [1]; [7],110 nM
same,EC50,α-synuclein fibrils [2]; [8],110 nM
same,Ki,α-synuclein fibrils [2]; [9],42 nM
same,EC50,α-synuclein fibrils [2]; [10],110 nM
same,Ki,α-synuclein fibrils [2]; [11],42 nM
COc1cc(/C=C/c2ccc3cc(O)ccc3n2)ccn1 [TZ-36-146],Ki,α-synuclein fibrils [1]; [4],127 nM
same,EC50,α-synuclein fibrils [1]; [6],332 nM
same,EC50,α-synuclein fibrils [2]; [8],332 nM
same,Ki,α-synuclein fibrils [2]; [9],127 nM
same,Ki,"tau fibrils; average, read-out: Ki (nM) Tau (avg)",113 nM
same,Ki,"tau fibrils; individual determinations, read-out: Ki (nM) Tau",124 nM and 102 nM
same,EC50,"tau fibrils; average, read-out: EC50m (nM) EC50 (avg)",278 nM
same,EC50,"tau fibrils; individual determinations, read-out: EC50m (nM) EC50",305 nM and 251 nM
O=C(Nc1ccc(OCCC[18F])cc1)c1ccc(/C=C/c2ccncc2)cc1 [[^18F]TZ-23-92],Biodistribution: Blood,[3]; 5 min post injection,2.40 ± 0.39 % ID/g
same,Biodistribution: Bone,[3]; 5 min post injection,3.31 % ID/g and 3.31 ± 0.74 % ID/g
same,Biodistribution: Brain,[3]; 5 min post injection,1.51 % ID/g and 1.52 ± 0.18 % ID/g
same,Biodistribution: Fat,[3]; 5 min post injection,1.79 ± 0.55 % ID/g
same,Biodistribution: Heart,[3]; 5 min post injection,2.93 ± 0.34 % ID/g
same,Biodistribution: Kidney,[3]; 5 min post injection,11.17 ± 0.41 % ID/g
same,Biodistribution: Liver,[3]; 5 min post injection,52.44 ± 3.84 % ID/g
same,Biodistribution: Lung,[3]; 5 min post injection,7.70 ± 0.85 % ID/g
same,Biodistribution: Muscle,[3]; 5 min post injection,1.47 ± 0.16 % ID/g
same,Biodistribution: Pancreas,[3]; 5 min post injection,2.03 ± 0.19 % ID/g
same,Biodistribution: Spleen,[3]; 5 min post injection,23.73 ± 4.54 % ID/g
same,Biodistribution: Blood,[3]; 30 min post injection,2.42 ± 0.19 % ID/g
same,Biodistribution: Bone,[3]; 30 min post injection,39.47 % ID/g and 39.48 ± 10.28 % ID/g
same,Biodistribution: Brain,[3]; 30 min post injection,1.55 % ID/g and 1.56 ± 0.08 % ID/g
same,Biodistribution: Fat,[3]; 30 min post injection,1.34 ± 0.30 % ID/g
same,Biodistribution: Heart,[3]; 30 min post injection,2.19 ± 0.19 % ID/g
same,Biodistribution: Kidney,[3]; 30 min post injection,9.10 ± 0.34 % ID/g
same,Biodistribution: Liver,[3]; 30 min post injection,14.47 ± 1.13 % ID/g
same,Biodistribution: Lung,[3]; 30 min post injection,2.30 ± 0.25 % ID/g
same,Biodistribution: Muscle,[3]; 30 min post injection,1.30 ± 0.16 % ID/g
same,Biodistribution: Pancreas,[3]; 30 min post injection,1.87 ± 0.23 % ID/g
same,Biodistribution: Spleen,[3]; 30 min post injection,1.69 ± 0.15 % ID/g
same,Biodistribution: Blood,[3]; 60 min post injection,0.84 ± 0.05 % ID/g
same,Biodistribution: Bone,[3]; 60 min post injection,68.78 % ID/g and 68.78 ± 6.75 % ID/g
same,Biodistribution: Brain,[3]; 60 min post injection,1.46 % ID/g and 1.46 ± 0.16 % ID/g
same,Biodistribution: Fat,[3]; 60 min post injection,0.58 ± 0.13 % ID/g
same,Biodistribution: Heart,[3]; 60 min post injection,0.90 ± 0.07 % ID/g
same,Biodistribution: Kidney,[3]; 60 min post injection,3.87 ± 0.36 % ID/g
same,Biodistribution: Liver,[3]; 60 min post injection,7.00 ± 0.33 % ID/g
same,Biodistribution: Lung,[3]; 60 min post injection,0.83 ± 0.05 % ID/g
same,Biodistribution: Muscle,[3]; 60 min post injection,0.55 ± 0.06 % ID/g
same,Biodistribution: Pancreas,[3]; 60 min post injection,0.98 ± 0.08 % ID/g
same,Biodistribution: Spleen,[3]; 60 min post injection,0.61 ± 0.04 % ID/g
same,Biodistribution: Blood,[3]; 120 min post injection,0.32 ± 0.02 % ID/g
same,Biodistribution: Bone,[3]; 120 min post injection,70.20 % ID/g and 70.20 ± 15.04 % ID/g
same,Biodistribution: Brain,[3]; 120 min post injection,1.0 % ID/g and 1.00 ± 0.11 % ID/g
same,Biodistribution: Fat,[3]; 120 min post injection,0.29 ± 0.10 % ID/g
same,Biodistribution: Heart,[3]; 120 min post injection,0.31 ± 0.02 % ID/g
same,Biodistribution: Kidney,[3]; 120 min post injection,1.67 ± 0.23 % ID/g
same,Biodistribution: Liver,[3]; 120 min post injection,3.50 ± 0.48 % ID/g
same,Biodistribution: Lung,[3]; 120 min post injection,0.36 ± 0.03 % ID/g
same,Biodistribution: Muscle,[3]; 120 min post injection,0.33 ± 0.26 % ID/g
same,Biodistribution: Pancreas,[3]; 120 min post injection,0.61 ± 0.13 % ID/g
same,Biodistribution: Spleen,[3]; 120 min post injection,0.24 ± 0.01 % ID/g
same,crossing of the blood brain barrier,[3]; judged from brain uptake at 5 min,can cross BBB and enter the brain
